Assay results: patent US20220235043A1, “SUBSTITUTED SULFONAMIDE PYRROLOPYRIDINES AS JAK INHIBITORS” (ACLARIS THERAPEUTICS, INC., priority 2019, published 2022)

Assays:
[1] = test system: IFNγ stimulated STAT1 phosphorylation on Tyr701 (JAK1/2); assay: JAK1/2 cellular target modulation: IFNγ stimulated phospho-STAT1 in human PBMC; type: cell-based; conditions: IFNγ 10 ng/ml, read-out: Infγ-STAT1 IC50
Procedure, shortened: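 Thawed human PBMC (200,000/well) preincubated with compound 1 h at 37°C, then stimulated with IL-12 1.7 ng/ml for 25 min, IFNγ 10 ng/ml for 10 min, or IL-2 25 ng/ml for 5 min. Lysate phospho-STAT4 Tyr693 and phospho-STAT5 Tyr694 read by MSD; phospho-STAT1 Tyr701 by sandwich ELISA.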

GI Exposure PK in Mice = type: in vivo; conditions: mouse, male BalbC mice, oral dose of 5 mg/kg
Description: The test compound, Example 75, was wetted with ˜0.025% of Tween-20 and triturated in a mortar and pestle, then slowly 0.5% of methyl cellulose was added to make up the final volume to 7.25 mL. The BalbC test animals were subjected to anesthesia induced with a mixture of 5% isoflurane and 0.8-1.5 L/min O2 gas flow. The formulated test compound was then dosed via oral gavage. At various time points (0.5, 1, 2, 4, 6 and 8 h) blood samples (˜100 μL) were collected from portal vein (pre-hepatic) followed by cardiac puncture (circulating) into tubes containing 2% w/v aqueous K2 EDTA solution as per time points. Post blood sampling, the gastro intestine (GI) tissues were collected from the mice at the same time points. The GI tissue was dissected into different parts as duodenum, jejunum, ileum and colon. The separated tissues were washed by flushing with PBS via oral gavage needle to remove GI content. Post collection all the tissues were blotted, weighed and homogenized with PBS buffer (pH 7.4). The blood samples were immediately placed on ice and centrifuged within 30 min at 4° C. for 5 min at 8,000 rpm to obtain plasma. Plasma was transferred by pipettes to pre-labelled centrifuge tubes and immediately transferred to −80° C. until bioanalysis. Tissue samples were placed in pre-labelled container and all samples were kept in −80° C. until homogenized. The homogenate was stored immediately in −80° C. until bioanalysis was conducted. Study samples were thawed to room temperature and 50 μL of sample was aliquoted into pre-labeled vials. To these was added 400 μL of 100% acetonitrile containing an IS (100 ng/mL; warfarin, tolbutamide and loperamide). The vials were mixed well, vortexed for 5 min, followed by centrifugation for 5 min at 14000 rpm at 4° C. The supernatant was separated and same was injected on LC-MS/MS. Plasma and GI tissue levels of test compound were determined by LC-MS analysis using a standard curve in the text matrix. Individual concentration-time data were analyzed using Phoenix WinNonlin (Version 8.1) by the non-compartmental analysis (NCA) method.

JAK3 (a.a. 781-1124) = biological target: T1, JAK3 (a.a. 781-1124) (Homo sapiens, UniProt P52333); assay: JAK3 enzyme activity assay (SRCtide phosphorylation, Caliper); type: biochemical; conditions: 1 uM ATP; read-out: JAK3 Inhibition IC50
T1 construct: JAK3 (a.a. 781-1124, ThermoFisher); purchased ThermoFisher
T1 sequence (P52333 781-1124): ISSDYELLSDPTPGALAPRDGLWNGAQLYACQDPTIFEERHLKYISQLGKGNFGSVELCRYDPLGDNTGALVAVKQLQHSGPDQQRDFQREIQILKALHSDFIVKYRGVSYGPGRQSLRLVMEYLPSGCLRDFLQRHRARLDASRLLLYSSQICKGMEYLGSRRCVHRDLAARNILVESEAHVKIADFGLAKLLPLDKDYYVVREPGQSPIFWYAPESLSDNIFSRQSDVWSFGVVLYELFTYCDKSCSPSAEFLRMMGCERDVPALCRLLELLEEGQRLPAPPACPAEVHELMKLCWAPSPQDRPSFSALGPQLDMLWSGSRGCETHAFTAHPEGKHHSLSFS
Procedure, shortened: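 Kinase reactions used 2.5 nM JAK3 (aa 781-1124), 1 μM FAM-SRCtide and 1 uM ATP in HEPES pH 7.5, MgCl2, BSA, Tween-20, 2% DMSO. Incubation was 40 min at room temperature, stopped with EDTA. Phospho/unphospho peptide separated by Caliper mobility shift; IC50 from 11-point 3-fold 4-parameter fits.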

[2] = portal vein plasma, Portal plasma

`Cc1nnc(-c2cnc3[nH]ccc3c2N[C@H]2C[C@@H](NS(=O)(=O)c3cccc(C#N)c3)C2)s1` [Example 75, 3-cyano-N-((1s,3s)-3-((5-(5-methyl-1,3,4-thiadiazol-2-yl)-1H-pyrrolo[2,3-b]pyridin-4-yl)amino)cyclobutyl)benzenesulfonamide] gave an IC50 [1] of 0.1 to 1 µM, an AUC (GI Exposure PK in Mice; [2]) of 0.247 µg·h/mL and a Tmax (GI Exposure PK in Mice; [2]) of 2 h. The AUC (GI Exposure PK in Mice; Colon) was 5.95 µg·h/mL, the Tmax (GI Exposure PK in Mice; Colon) was 4 h and the AUC (GI Exposure PK in Mice; Duodenum) was 1.51 µg·h/mL. For the same compound, the Tmax (GI Exposure PK in Mice; Duodenum) was 0.5 h, the AUC (GI Exposure PK in Mice; Ileum) was 24.5 µg·h/mL and the Tmax (GI Exposure PK in Mice; Ileum) was 2 h. For the same compound, the AUC (GI Exposure PK in Mice; Jejunum) was 13.3 µg·h/mL, the Tmax (GI Exposure PK in Mice; Jejunum) was 0.5 h and the IC50 (JAK3 (a.a. 781-1124)) was 0.01 to 0.1 µM.
